Columns and labels:
ACC1 = ACC1 (Homo sapiens, UniProt Q13085); experiment: In vitro ACC1 inhibition assay (ADP-Glo); format: biochemical; settings: read-out: ACC1
Experimental: An exemplary procedure for the in vitro ACC inhibition assay, which can be used to determine the inhibitory action of compounds of the invention toward either ACC1 or ACC2, follows. The ADP-Glo™ Kinase Assay kit from Promega was used. The ADP-Glo™ Kinase Assay is a luminescent ADP detection assay to measure enzymatic activity by quantifying the amount of ADP produced during an enzyme reaction. The assay is performed in two steps; first, after the enzyme reaction, an equal volume of ADP-Glo™ Reagent is added to terminate the reaction and deplete the remaining ATP. Second, the Kinase Detection Reagent is added to simultaneously convert ADP to ATP and allow the newly synthesized ATP to be measured using a luciferase/luciferin reaction. Luminescence can be correlated to ADP concentrations by using an ATP-to-ADP conversion curve. The detailed procedure is as follows. 50 μL of the compound being tested (600 uM in DMSO) was added to a 384-well dilution plate. The compound was diluted 1:3 in succession in DMSO for each row for 11 wells. 0.5 μL ACC2 working solution was added to 384-well white Optiplate assay plate. 0.5 μL diluted compound solution in each column from step 2 to assay plate, each row containing 2 replicates. […] The plates were incubated at room temperature for 15 minutes. 5 μL substrate working solution was added to each well to initiate reaction. […] Plates were incubated at room temperature for 60 minutes. 10 μL ADP glo reagent was added. Plates were incubated at room temperature for 40 minutes. 20 μL kinase detection reagent was added.
Data for each concentration, as well as the positive and negative controls were averaged, and the standard deviation calculated. Percent inhibition was calculated by the formula: 100× (average negative control−compound)/(average negative control−average positive control). The IC50 for each compound was calculated by fitting the data with a non-linear regression equation: Y=Bottom+(Top-Bottom)/(1+10^((Log IC50−X)*HillSlope)), where X is the log of compound concentration and Y is percent inhibition.
The compound numbers correspond to the compound numbers in Table 1.

ACC2 = ACC2 (Homo sapiens, UniProt O00763); experiment: In vitro ACC2 inhibition assay (ADP-Glo); format: biochemical; settings: read-out: ACC2
Procedure, shortened: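 Enzyme (human ACC1 or ACC2) and compound, serially diluted 1:3 over 11 points from a 600 uM DMSO stock, were preincubated 15 min before substrate addition.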

Sequence of ACC2 (O00763 whole entry, species assumed): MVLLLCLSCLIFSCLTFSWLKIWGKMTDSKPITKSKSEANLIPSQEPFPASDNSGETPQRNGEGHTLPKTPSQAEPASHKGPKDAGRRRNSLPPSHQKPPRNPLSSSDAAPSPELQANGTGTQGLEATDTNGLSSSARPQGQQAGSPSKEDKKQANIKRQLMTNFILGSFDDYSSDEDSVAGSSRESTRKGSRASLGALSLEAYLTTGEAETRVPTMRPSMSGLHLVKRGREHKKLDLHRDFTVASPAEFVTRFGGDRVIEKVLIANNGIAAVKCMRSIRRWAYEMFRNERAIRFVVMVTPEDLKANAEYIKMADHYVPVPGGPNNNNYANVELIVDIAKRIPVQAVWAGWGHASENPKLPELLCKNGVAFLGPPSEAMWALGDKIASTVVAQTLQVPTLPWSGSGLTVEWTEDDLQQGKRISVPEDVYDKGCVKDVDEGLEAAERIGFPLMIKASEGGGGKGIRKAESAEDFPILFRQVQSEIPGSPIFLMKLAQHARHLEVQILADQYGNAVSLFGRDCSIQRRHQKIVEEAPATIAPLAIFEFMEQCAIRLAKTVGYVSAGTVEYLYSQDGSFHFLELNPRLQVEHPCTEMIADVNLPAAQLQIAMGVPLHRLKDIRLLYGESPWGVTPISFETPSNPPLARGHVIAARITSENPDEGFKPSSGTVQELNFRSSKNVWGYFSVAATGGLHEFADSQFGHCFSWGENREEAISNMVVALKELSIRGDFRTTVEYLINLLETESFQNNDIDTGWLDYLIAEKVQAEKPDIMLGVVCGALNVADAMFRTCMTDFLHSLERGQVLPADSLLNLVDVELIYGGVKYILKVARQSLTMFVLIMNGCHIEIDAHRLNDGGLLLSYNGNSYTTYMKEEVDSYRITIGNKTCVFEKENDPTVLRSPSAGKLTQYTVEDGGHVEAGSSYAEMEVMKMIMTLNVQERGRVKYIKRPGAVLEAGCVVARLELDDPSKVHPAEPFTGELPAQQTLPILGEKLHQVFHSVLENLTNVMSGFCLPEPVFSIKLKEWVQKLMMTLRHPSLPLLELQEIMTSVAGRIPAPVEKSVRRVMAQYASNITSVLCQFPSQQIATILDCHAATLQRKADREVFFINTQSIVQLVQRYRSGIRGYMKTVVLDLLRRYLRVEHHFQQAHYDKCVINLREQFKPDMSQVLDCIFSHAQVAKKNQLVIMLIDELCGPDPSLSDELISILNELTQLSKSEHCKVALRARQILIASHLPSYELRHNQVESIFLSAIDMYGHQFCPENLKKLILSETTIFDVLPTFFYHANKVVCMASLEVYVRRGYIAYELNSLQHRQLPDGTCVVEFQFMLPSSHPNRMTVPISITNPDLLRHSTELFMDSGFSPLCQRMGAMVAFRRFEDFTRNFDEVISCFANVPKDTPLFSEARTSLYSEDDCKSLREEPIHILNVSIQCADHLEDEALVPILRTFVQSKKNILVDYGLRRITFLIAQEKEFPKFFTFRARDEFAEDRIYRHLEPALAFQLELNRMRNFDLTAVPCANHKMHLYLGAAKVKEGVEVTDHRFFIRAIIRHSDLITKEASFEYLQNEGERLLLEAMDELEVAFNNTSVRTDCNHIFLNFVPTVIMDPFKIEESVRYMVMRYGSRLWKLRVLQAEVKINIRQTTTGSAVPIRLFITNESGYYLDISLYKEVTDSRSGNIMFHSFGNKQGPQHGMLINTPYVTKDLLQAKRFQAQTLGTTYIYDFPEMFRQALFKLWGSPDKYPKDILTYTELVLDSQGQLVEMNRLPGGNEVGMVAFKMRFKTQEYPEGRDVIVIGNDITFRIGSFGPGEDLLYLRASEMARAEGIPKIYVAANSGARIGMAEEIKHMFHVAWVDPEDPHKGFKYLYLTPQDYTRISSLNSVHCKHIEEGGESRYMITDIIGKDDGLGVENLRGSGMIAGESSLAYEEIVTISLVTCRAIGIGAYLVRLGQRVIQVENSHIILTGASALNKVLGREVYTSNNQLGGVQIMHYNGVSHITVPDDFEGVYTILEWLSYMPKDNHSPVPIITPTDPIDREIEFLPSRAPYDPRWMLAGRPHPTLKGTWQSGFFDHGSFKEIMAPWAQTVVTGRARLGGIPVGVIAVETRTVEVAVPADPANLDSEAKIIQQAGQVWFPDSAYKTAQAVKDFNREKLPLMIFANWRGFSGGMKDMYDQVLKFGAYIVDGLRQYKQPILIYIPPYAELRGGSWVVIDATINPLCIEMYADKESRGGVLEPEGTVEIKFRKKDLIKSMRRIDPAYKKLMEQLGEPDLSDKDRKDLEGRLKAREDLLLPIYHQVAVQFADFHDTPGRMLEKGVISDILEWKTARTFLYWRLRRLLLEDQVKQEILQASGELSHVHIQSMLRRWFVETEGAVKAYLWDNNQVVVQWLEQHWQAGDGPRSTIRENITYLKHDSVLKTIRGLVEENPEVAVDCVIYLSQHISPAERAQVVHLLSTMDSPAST

SMILES	IC50 (ACC1)	IC50 (ACC2)
Cc1c(-c2ncco2)sc2c1c(=O)n(C(C)(C)C(=O)O)c(=O)n2C[C@H](OC1CCC(=O)CC1)c1ccccc1 [I-145, (R)-2-methyl-2-(5-methyl-6-(oxazol-2-yl)-2,4-dioxo-1-(2-((4-oxocyclohexyl)oxy)-2-phenylethyl)-1,2-dihydrothieno[2,3-d]pyrimidin-3(4H)-yl)propanoic acid]	< 100 nM	< 1000 nM
CCCc1ccccc1CCn1c(=O)n(C(C)(C)C(=O)O)c(=O)c2c(C)c(-c3ncco3)sc21 [I-147, 2-methyl-2-[5-methyl-6-(1,3-oxazol-2-yl)-2,4-dioxo-1-[2-(2-propylphenyl)ethyl]-1H,2H,3H,4H-thieno[2,3-d]pyrimidin-3-yl]propanoic acid]	< 1000 nM	< 1000 nM
Cc1c(-c2ncco2)sc2c1c(=O)n(C(C)(C)C(=O)O)c(=O)n2C[C@H](O[C@H]1CC[C@](C)(O)CC1)c1ccccc1 [I-163, 2-(1-((R)-2-(((1r,4R)-4-hydroxy-4-methylcyclohexyl)oxy)-2-phenylethyl)-5-methyl-6-(oxazol-2-yl)-2,4-dioxo-1,2-dihydrothieno[2,3-d]pyrimidin-3(4H)-yl)-2-methylpropanoic acid]	< 1000 nM	< 1000 nM
Cc1c(-c2ncco2)sc2c1c(=O)n(C(C)(C)C(=O)O)c(=O)n2C[C@H](OC1CCC(O)CC1)c1ccccc1 (stereo partly drawn) [I-164, 2-[1-[(2R)-2-[(4-hydroxycyclohexyl)oxy]-2-phenylethyl]-5-methyl-6-(1,3-oxazol-2-yl)-2,4-dioxo-1H,2H,3H,4H-thieno[2,3-d]pyrimidin-3-yl]-2-methylpropanoic acid]	< 100 nM	< 100 nM
CCOc1ccccc1[C@H](Cn1c(=O)n(C(C)(C)C(=O)O)c(=O)c2c(C)c(-c3ncco3)sc21)OC(C)C [I-177, 2-[1-[(2R)-2-(2-ethoxyphenyl)-2-(propan-2-yloxy)ethyl]-5-methyl-6-(1,3-oxazol-2-yl)-2,4-dioxo-1H,2H,3H,4H-thieno[2,3-d]pyrimidin-3-yl]-2-methylpropanoic acid]	< 100 nM	< 100 nM
Cc1c(-c2ncco2)sc2c1c(=O)n(C(C)(C)C(=O)O)c(=O)n2C[C@H](OC[C@@H](C)O)c1ccccc1 [I-179, 2-[1-[(2R)-2-[(2R)-2-hydroxypropoxy]-2-phenylethyl]-5-methyl-6-(1,3-oxazol-2-yl)-2,4-dioxo-1H,2H,3H,4H-thieno[2,3-d]pyrimidin-3-yl]-2-methylpropanoic acid]	< 100 nM	< 100 nM
CCc1ccccc1[C@H](Cn1c(=O)n(C(C)(C)C(=O)O)c(=O)c2c(C)c(-c3ncco3)sc21)OC(C)C [I-180, 2-[1-[(2R)-2-(2-ethylphenyl)-2-(propan-2-yloxy)ethyl]-5-methyl-6-(1,3-oxazol-2-yl)-2,4-dioxo-1H,2H,3H,4H-thieno[2,3-d]pyrimidin-3-yl]-2-methylpropanoic acid]	< 100 nM	< 100 nM
COc1ccccc1[C@H](Cn1c(=O)n(C(C)(C)C(=O)N2CCC2)c(=O)c2c(C)c(-c3ncco3)sc21)OC(C)C [I-237, 3-[1-(azetidin-1-yl)-2-methyl-1-oxopropan-2-yl]-1-[(2R)-2-(2-methoxyphenyl)-2-(propan-2-yloxy)ethyl]-5-methyl-6-(1,3-oxazol-2-yl)-1H,2H,3H,4H-thieno[2,3-d]pyrimidine-2,4-dione]	< 100 nM	< 100 nM
COc1ccccc1[C@H](Cn1c(=O)n(C(C)(C)C(=O)N2CCCC2)c(=O)c2c(C)c(-c3ncco3)sc21)OC(C)C [I-238, 1-[(2R)-2-(2-methoxyphenyl)-2-(propan-2-yloxy)ethyl]-5-methyl-3-[2-methyl-1-oxo-1-(pyrrolidin-1-yl)propan-2-yl]-6-(1,3-oxazol-2-yl)-1H,2H,3H,4H-thieno[2,3-d]pyrimidine-2,4-dione]	< 100 nM	< 100 nM
COc1ccccc1[C@H](Cn1c(=O)n(C(C)(C)C(=O)N2CCCCC2)c(=O)c2c(C)c(-c3ncco3)sc21)OC(C)C [I-239, 1-[(2R)-2-(2-methoxyphenyl)-2-(propan-2-yloxy)ethyl]-5-methyl-3-[2-methyl-1-oxo-1-(piperidin-1-yl)propan-2-yl]-6-(1,3-oxazol-2-yl)-1H,2H,3H,4H-thieno[2,3-d]pyrimidine-2,4-dione]	< 100 nM	< 100 nM
COc1ccccc1[C@H](Cn1c(=O)n(C(C)(C)C(=O)N2CC(O)C2)c(=O)c2c(C)c(-c3ncco3)sc21)OC(C)C [I-241, 3-[1-(3-hydroxyazetidin-1-yl)-2-methyl-1-oxopropan-2-yl]-1-[(2R)-2-(2-methoxyphenyl)-2-(propan-2-yloxy)ethyl]-5-methyl-6-(1,3-oxazol-2-yl)-1H,2H,3H,4H-thieno[2,3-d]pyrimidine-2,4-dione]	< 100 nM	< 100 nM
COc1ccccc1[C@H](Cn1c(=O)n(C(C)(C)C(=O)NC(C)C)c(=O)c2c(C)c(-c3ncco3)sc21)OC(C)C [I-242, 2-[1-[(2R)-2-(2-methoxyphenyl)-2-(propan-2-yloxy)ethyl]-5-methyl-6-(1,3-oxazol-2-yl)-2,4-dioxo-1H,2H,3H,4H-thieno[2,3-d]pyrimidin-3-yl]-2-methyl-N-(propan-2-yl)propanamide]	< 100 nM	< 100 nM
CCO[C@@H](Cn1c(=O)n(C(C)(C)C(=O)O)c(=O)c2c(C)c(-c3ncco3)sc21)c1ccccc1OC [I-243, 2-[1-[(2R)-2-ethoxy-2-(2-methoxyphenyl)ethyl]-5-methyl-6-(1,3-oxazol-2-yl)-2,4-dioxo-1H,2H,3H,4H-thieno[2,3-d]pyrimidin-3-yl]-2-methylpropanoic acid]	< 100 nM	< 100 nM
CCc1ccccc1[C@H](Cn1c(=O)n(C(C)(C)C(=O)O)c(=O)c2c(C)c(-c3ncco3)sc21)O[C@H]1CC[C@H](O)CC1 [I-244, 2-(1-((R)-2-(2-ethylphenyl)-2-(((1r,4R)-4-hydroxycyclohexyl)oxy)ethyl)-5-methyl-6-(oxazol-2-yl)-2,4-dioxo-1,2-dihydrothieno[2,3-d]pyrimidin-3(4H)-yl)-2-methylpropanoic acid]	< 100 nM	< 100 nM
CCc1ccccc1[C@H](Cn1c(=O)n(C(C)(C)C(=O)O)c(=O)c2c(C)c(-c3ncco3)sc21)O[C@H]1CC[C@@H](O)CC1 [I-245, 2-(1-((R)-2-(2-ethylphenyl)-2-(((1s,4S)-4-hydroxycyclohexyl)oxy)ethyl)-5-methyl-6-(oxazol-2-yl)-2,4-dioxo-1,2-dihydrothieno[2,3-d]pyrimidin-3(4H)-yl)-2-methylpropanoic acid]	< 100 nM	< 100 nM
COc1ccccc1[C@H](Cn1c(=O)n(C(C)(C)C(=O)N2CCC2)c(=O)c2c(C)c(-c3ncco3)sc21)OC1CCOCC1 [I-247, 3-[1-(azetidin-1-yl)-2-methyl-1-oxopropan-2-yl]-1-[(2R)-2-(2-methoxyphenyl)-2-(oxan-4-yloxy)ethyl]-5-methyl-6-(1,3-oxazol-2-yl)-1H,2H,3H,4H-thieno[2,3-d]pyrimidine-2,4-dione]	< 100 nM	< 100 nM
CCc1ccccc1[C@H](Cn1c(=O)n(C(C)(C)C(=O)O)c(=O)c2c(C)c(-c3ncco3)sc21)OC1CCOCC1 [I-249, 2-[1-[(2R)-2-(2-ethylphenyl)-2-(oxan-4-yloxy)ethyl]-5-methyl-6-(1,3-oxazol-2-yl)-2,4-dioxo-1H,2H,3H,4H-thieno[2,3-d]pyrimidin-3-yl]-2-methylpropanoic acid]	< 100 nM	< 100 nM
COc1ccccc1[C@H](Cn1c(=O)n(C(C)(C)C(=O)O)c(=O)c2c(C)c(-c3ncco3)sc21)OCCO [I-254, 2-[1-[(2R)-2-(2-hydroxyethoxy)-2-(2-methoxyphenyl)ethyl]-5-methyl-6-(1,3-oxazol-2-yl)-2,4-dioxo-1H,2H,3H,4H-thieno[2,3-d]pyrimidin-3-yl]-2-methylpropanoic acid]	< 100 nM	< 100 nM
CCc1ccccc1[C@H](Cn1c(=O)n(C(C)(C)C(=O)O)c(=O)c2c(C)c(-c3ncco3)sc21)OCCO [I-255, 2-[1-[(2R)-2-(2-ethylphenyl)-2-(2-hydroxyethoxy)ethyl]-5-methyl-6-(1,3-oxazol-2-yl)-2,4-dioxo-1H,2H,3H,4H-thieno[2,3-d]pyrimidin-3-yl]-2-methylpropanoic acid]	< 100 nM	< 100 nM
CCOc1ccccc1[C@H](Cn1c(=O)n(C(C)(C)C(=O)O)c(=O)c2c(C)c(-c3ncco3)sc21)OCCO [I-256, 2-[1-[(2R)-2-(2-ethoxyphenyl)-2-(2-hydroxyethoxy)ethyl]-5-methyl-6-(1,3-oxazol-2-yl)-2,4-dioxo-1H,2H,3H,4H-thieno[2,3-d]pyrimidin-3-yl]-2-methylpropanoic acid]	< 100 nM	< 100 nM

From patent US9453026B2, “ACC inhibitors and uses thereof” (Gilead Apollo, Inc., priority 2011, dated 2016)
